Experiments:
CD8+ T cells = experiment: In vitro immunogenicity: T-cell priming with aAPCs loaded with peptide/MHC complexes and anti-CD28, pMHC multimer readout; assay type: cell-based, human; conditions: in vitro immunogenicity, HLA-A*02 restricted peptides; percentage of positive wells and donors (among evaluable)
From the text: In order to obtain information regarding the immunogenicity of the TUMAPs of the present invention, the inventors performed investigations using an in vitro T-cell priming assay based on repeated stimulations of CD8+ T cells with artificial antigen presenting cells (aAPCs) loaded with peptide/MHC complexes and anti-CD28 antibody.
In order to perform in vitro stimulations by artificial antigen presenting cells loaded with peptide-MHC complex (pMHC) and anti-CD28 antibody, the inventors first isolated CD8+ T cells from fresh HLA-A*02 leukapheresis products via positive selection using CD8 microbeads (Miltenyi Biotec, Bergisch-Gladbach, Germany) of healthy donors obtained from the University clinics Mannheim, Germany, after informed consent. PBMCs and isolated CD8+ lymphocytes were incubated in T-cell medium (TCM) until use consisting of RPMI-Glutamax (Invitrogen, Karlsruhe, Germany) supplemented with 10% heat inactivated human AB serum (PAN-Biotech, Aidenbach, Germany), 100 U/ml Penicillin/100 μg/ml Streptomycin (Cambrex, Cologne, Germany), 1 mM sodium pyruvate (CC Pro, Oberdorla, Germany), 20 μg/ml Gentamycin (Cambrex). 2.5 ng/ml IL-7 (PromoCell, Heidelberg, Germany) and 10 U/ml IL-2 (Novartis Pharma, Nürnberg, Germany) were also added to the TCM at this step. Generation of pMHC/anti-CD28 coated beads, T-cell stimulations and readout was performed in a highly defined in vitro system using four different pMHC molecules per stimulation condition and 8 different pMHC molecules per readout condition.
The purified co-stimulatory mouse IgG2a anti human CD28 Ab 9.3 (Jung et al., 1987) was chemically biotinylated using Sulfo-N-hydroxysuccinimidobiotin as recommended by the manufacturer (Perbio, Bonn, Germany). Beads used were 5.6 μm diameter streptavidin coated polystyrene particles (Bangs Laboratories, Illinois, USA).
pMHC used for positive and negative control stimulations were A*0201/MLA-001 (peptide […] (SEQ ID NO. 289) from modified Melan-A/MART-1) and A*0201/DDX5-001 ([…] from DDX5, SEQ ID NO. 290), respectively.
800,000 beads/200 μl were coated in 96-well plates in the presence of 4×12.5 ng different biotin-pMHC, washed and 600 ng biotin anti-CD28 were added subsequently in a volume of 200 μl. Stimulations were initiated in 96-well plates by co-incubating 1×10^6 CD8+ T cells with 2×10^5 washed coated beads in 200 μl TCM supplemented with 5 ng/ml IL-12 (PromoCell) for 3 days at 37° C. Half of the medium was then exchanged by fresh TCM supplemented with 80 U/ml IL-2 and incubating was continued for 4 days at 37° C. This stimulation cycle was performed for a total of three times. For the pMHC multimer readout using 8 different pMHC molecules per condition, a two-dimensional combinatorial coding approach was used as previously described (Andersen et al., 2012) with minor modifications encompassing coupling to 5 different fluorochromes. Finally, multimeric analyses were performed by staining the cells with Live/dead near IR dye (Invitrogen, Karlsruhe, Germany), CD8-FITC antibody clone SK1 (BD, Heidelberg, Germany) and fluorescent pMHC multimers. For analysis, a BD LSRII SORP cytometer equipped with appropriate lasers and filters was used. Peptide specific cells were calculated as percentage of total CD8+ cells. Evaluation of multimeric analysis was done using the FlowJo software (Tree Star, Oreg., USA). In vitro priming of specific multimer+CD8+ lymphocytes was detected by comparing to negative control stimulations.

HLA-A*02:01 = HLA-A*02:01 (Homo sapiens, UniProt P04439, D140Y/D185E/D98H/E176V/E277Q/G131W/G231S/I119V/I121R/I166T/I218V/L300P/L318F/N151K/N90K/P208A/P217A/Q86G/Q94H/R138H/R169H/T345S); experiment: MHC binding assay (UV-ligand exchange, beta2m ELISA); conditions: binding to HLA-A*02:01, β2m ELISA
Procedure, shortened: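 Peptide-MHC complexes made by UV-ligand exchange of a UV-cleavable peptide for test peptide; exchange yield measured by β2m ELISA on streptavidin-coated plates with samples diluted 100-fold, HRP anti-β2m and TMB read at 450 nm. Refolded HLA-A*02:01/MLA-001 monomers (15-500 ng/ml) served as standards.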

[1] = system: advanced non-resectable HCC; conditions: advanced non-resectable HCC patients (Chapiro et al., 2014; Llovet et al., 2008); cited from earlier work

Compound | Wells positive [%] (CD8+ T cells) | Peptide exchange (MHC class I binding score, peptide exchange yield) (HLA-A*02:01) | increase of survival [1]
183 (ALSYILPYL; listed as Homo sapiens) [compound 183] | +++ (50%-69% = +++) | +++ (≥50 = +++) | 
255 (FLMKNSDLYGA; listed as Homo sapiens) [compound 255] | + (<20% = +) | +++ (≥50 = +++) | 
34 (TLNTLDINL; listed as Homo sapiens) [compound 34] | ++++ (>=70% = ++++) | +++ (≥50 = +++) | 
121 (ALYVQAPTV; listed as Homo sapiens) [compound 121] | + (<20% = +) | ++ (≥20% = ++) | 
263 (SIIEYLPTL; listed as Homo sapiens) [compound 263] | + (<20% = +) | +++ (≥50 = +++) | 
157 (ILQDGQFLV; listed as Homo sapiens) [compound 157] | + (<20% = +) | ++ (≥20% = ++) | 
27 (GLLGKVTSV; listed as Homo sapiens) [compound 27] | + (<20% = +) | +++ (≥50 = +++) | 
77 (ALYGNVQQV; listed as Homo sapiens) [compound 77] | + (<20% = +) | +++ (≥50 = +++) | 
236 (KMSELQTYV; listed as Homo sapiens) [compound 236] | + (<20% = +) | +++ (≥50 = +++) | 
242 (KLQEEIPVL; listed as Homo sapiens) [compound 242] | + (<20% = +) | +++ (≥50 = +++) | 
39 (YLEDGFAYV; listed as Homo sapiens) [compound 39] | ++++ (>=70% = ++++) | +++ (≥50 = +++) | 
CNC(=O)c1cc(Oc2ccc(NC(=O)Nc3ccc(Cl)c(C(F)(F)F)c3)cc2)ccn1 [Sorafenib] |  |  | about 3 months
4 (VLFGELPAL; listed as Homo sapiens) [compound 4] | + (<20% = +) | +++ (≥50 = +++) | 
264 (TLHDQVHLL; listed as Homo sapiens) [compound 264] | + (<20% = +) | ++ (≥20% = ++) | 
101 (SLLEVNEASSV; listed as Homo sapiens) [compound 101] | + (<20% = +) | +++ (≥50 = +++) | 
35 (VIIKGLEEI; listed as Homo sapiens) [compound 35] | + (<20% = +) | ++ (≥20% = ++) | 
97 (KLFEKSTGL; listed as Homo sapiens) [compound 97] | + (<20% = +) | +++ (≥50 = +++) | 

Compound | Wells positive [%] (CD8+ T cells) | Peptide exchange (MHC class I binding score, peptide exchange yield) (HLA-A*02:01) | increase of survival [1]
14 (YTFSGDVQL; listed as Homo sapiens) [compound 14] | + (<20% = +) | +++ (≥50 = +++) | 
260 (ALNESLVEC; listed as Homo sapiens) [compound 260] | + (<20% = +) | +++ (≥50 = +++) | 
17 (GLLPSAESIKL; listed as Homo sapiens) [compound 17] | + (<20% = +) | ++++ (≥75% = ++++) | 
267 (YLLDMPLWYL; listed as Homo sapiens) [compound 267] | + (<20% = +) | +++ (≥50 = +++) | 
257 (KLIDHQGLYL; listed as Homo sapiens) [compound 257] | + (<20% = +) | +++ (≥50 = +++) | 
89 (SLAETIFIV; listed as Homo sapiens) [compound 89] | + (<20% = +) | +++ (≥50 = +++) | 
82 (ILAEEPIYIRV; listed as Homo sapiens) [compound 82] | +++ (50%-69% = +++) | +++ (≥50 = +++) | 
29 (KMISAIPTL; listed as Homo sapiens) [compound 29] | + (<20% = +) | ++ (≥20% = ++) | 
233 (SLFESLEYL; listed as Homo sapiens) [compound 233] | + (<20% = +) | +++ (≥50 = +++) | 
9 (SLITGQDLLSV; listed as Homo sapiens) [compound 9] | + (<20% = +) | +++ (≥50 = +++) | 
50 (ILLSVLHQL; listed as Homo sapiens) [compound 50] | + (<20% = +) | +++ (≥50 = +++) | 
66 (AMFPDTIPRV; listed as Homo sapiens) [compound 66] | + (<20% = +) | ++ (≥20% = ++) | 
246 (ALAGIVTNV; listed as Homo sapiens) [compound 246] | + (<20% = +) | +++ (≥50 = +++) | 
203 (FLFVDPELV; listed as Homo sapiens) [compound 203] | +++ (50%-69% = +++) | ++ (≥20% = ++) | 
18 (KTASINQNV; listed as Homo sapiens) [compound 18] | +++ (50%-69% = +++) | ++ (≥20% = ++) | 
254 (ALGDKFLLRV; listed as Homo sapiens) [compound 254] | + (<20% = +) | ++ (≥20% = ++) | 
